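Exposure lasted 48 hours, with cells grown in 96-well plates and compounds tested at five concentrations. The concentration for 50% growth inhibition is given as GI50.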 Calls of active or inactive are those of the source. Cut-off read from the data, not from the text of the source: active = GI50 up to about 1.1 µM and inactive = higher.
What was measured:
Assay in all cases: NCI tumour cell line growth inhibition, 48 h
786-0 = test system: 786-0
A498 = test system: A498
A549 = test system: A549
ACHN = test system: ACHN
BT-549 = test system: BT-549
CAKI-1 = test system: CAKI-1
CCRF-CEM = test system: CCRF-CEM
COLO 205 = test system: COLO 205
DU-145 = test system: DU-145
EKVX = test system: EKVX
HCC 2998 = test system: HCC 2998
HCT-116 = test system: HCT-116
HCT-15 = test system: HCT-15
HOP-62 = test system: HOP-62
HOP-92 = test system: HOP-92
HT-29 = test system: HT-29
Hs-578T = test system: Hs-578T
IGROV-1 = test system: IGROV-1
K562 = test system: K562
KM12 = test system: KM12
LOX IMVI = test system: LOX IMVI
M14 = test system: M14
MCF7 = test system: MCF7
MDA-MB-231 = test system: MDA-MB-231
MDA-MB-435 = test system: MDA-MB-435
MDA-N = test system: MDA-N
MOLT-4 = test system: MOLT-4
Malme-3M = test system: Malme-3M
NCI-H23 = test system: NCI-H23
NCI-H460 = test system: NCI-H460
NCI-H522 = test system: NCI-H522
NCI/ADR-RES = test system: NCI/ADR-RES
OVCAR-3 = test system: OVCAR-3
OVCAR-4 = test system: OVCAR-4
OVCAR-5 = test system: OVCAR-5
OVCAR-8 = test system: OVCAR-8
PC-3 = test system: PC-3
RPMI-8226 = test system: RPMI-8226
SF-268 = test system: SF-268
SF-295 = test system: SF-295
SF-539 = test system: SF-539
SK-MEL-28 = test system: SK-MEL-28
SK-MEL-5 = test system: SK-MEL-5
SK-OV-3 = test system: SK-OV-3
SN12C = test system: SN12C
SNB-19 = test system: SNB-19
SNB-75 = test system: SNB-75
SR = test system: SR
SW-620 = test system: SW-620
T47D = test system: T47D
TK-10 = test system: TK-10
U-251 = test system: U-251
UACC-257 = test system: UACC-257
UACC-62 = test system: UACC-62
UO-31 = test system: UO-31
HL-60 = test system: HL-60
NCI-H226 = test system: NCI-H226
SK-MEL-2 = test system: SK-MEL-2

Q: What does the source list for CN(C(=O)Cc1ccccc1)n1cnn(CC(=O)OC(C)(C)C)c1=S?
A: GI50 (786-0): > 10 µM (inactive); GI50 (A498): > 10 µM (inactive); GI50 (A549): > 10 µM (inactive); GI50 (ACHN): > 10 µM (inactive); GI50 (BT-549): > 10 µM (inactive); GI50 (CAKI-1): > 10 µM (inactive); GI50 (CCRF-CEM): > 10 µM (inactive); GI50 (COLO 205): > 10 µM (inactive); GI50 (DU-145): > 10 µM (inactive); GI50 (EKVX): > 10 µM (inactive); GI50 (HCC 2998): > 10 µM (inactive); GI50 (HCT-116): > 10 µM (inactive); GI50 (HCT-15): > 10 µM; GI50 (HOP-62): > 10 µM (inactive); GI50 (HOP-92): > 10 µM (inactive); GI50 (HT-29): > 10 µM (inactive); GI50 (Hs-578T): > 10 µM (inactive); GI50 (IGROV-1): > 10 µM (inactive); GI50 (K562): > 10 µM (inactive); GI50 (KM12): > 10 µM (inactive); GI50 (LOX IMVI): > 10 µM (inactive); GI50 (M14): > 10 µM (inactive); GI50 (MCF7): > 10 µM (inactive); GI50 (MDA-MB-231): > 10 µM (inactive); GI50 (MDA-MB-435): > 10 µM (inactive); GI50 (MDA-N): > 10 µM (inactive); GI50 (MOLT-4): > 10 µM (inactive); GI50 (Malme-3M): > 10 µM (inactive); GI50 (NCI-H23): > 10 µM (inactive); GI50 (NCI-H460): > 10 µM (inactive); GI50 (NCI-H522): > 10 µM (inactive); GI50 (NCI/ADR-RES): > 10 µM (inactive); GI50 (OVCAR-3): > 10 µM (inactive); GI50 (OVCAR-4): > 10 µM (inactive); GI50 (OVCAR-5): > 10 µM (inactive); GI50 (OVCAR-8): > 10 µM (inactive); GI50 (PC-3): > 10 µM (inactive); GI50 (RPMI-8226): > 10 µM (inactive); GI50 (SF-268): > 10 µM (inactive); GI50 (SF-295): > 10 µM (inactive); GI50 (SF-539): > 10 µM (inactive); GI50 (SK-MEL-28): > 10 µM (inactive); GI50 (SK-MEL-5): > 10 µM (inactive); GI50 (SK-OV-3): > 10 µM (inactive); GI50 (SN12C): > 10 µM (inactive); GI50 (SNB-19): > 10 µM (inactive); GI50 (SNB-75): > 10 µM (inactive); GI50 (SR): > 10 µM (inactive); GI50 (SW-620): > 10 µM (inactive); GI50 (T47D): > 10 µM (inactive); GI50 (TK-10): > 10 µM (inactive); GI50 (U-251): > 10 µM (inactive); GI50 (UACC-257): > 10 µM (inactive); GI50 (UACC-62): > 10 µM (inactive); GI50 (UO-31): > 10 µM (inactive)

Q: COC(O)C(=O)c1ccc2c(c1)CC1(C2)Cc2cc3c(cc2C1=O)CCC3 (configuration not stated) was tested. Which GI50 (786-0) did it give?
A: 17.6 µM (inactive)

Q: And the GI50 (A498)?
A: 18.7 µM (inactive)

Q: What about the GI50 (A549) of the same compound?
A: 20.2 µM (inactive)

Q: And the GI50 (ACHN)?
A: 17 µM (inactive)

Q: And the GI50 (BT-549)?
A: 17.4 µM (inactive)

Q: What about the GI50 (CAKI-1) of the same compound?
A: 16.9 µM (inactive)

Q: And the GI50 (CCRF-CEM)?
A: 11.9 µM (inactive)

Q: What about the GI50 (COLO 205) of the same compound?
A: 20 µM (inactive)

Q: What about the GI50 (DU-145) of the same compound?
A: 17.1 µM (inactive)

Q: And the GI50 (EKVX)?
A: 19.2 µM (inactive)

Q: What about the GI50 (HCC 2998) of the same compound?
A: 19.1 µM (inactive)

Q: What about the GI50 (HCT-116) of the same compound?
A: 18.9 µM (inactive)

Q: And the GI50 (HCT-15)?
A: 22.2 µM

Q: And the GI50 (HL-60)?
A: 9.33 µM (inactive)

Q: And the GI50 (HOP-62)?
A: 19.5 µM (inactive)

Q: And the GI50 (HT-29)?
A: 20.1 µM (inactive)

Q: And the GI50 (Hs-578T)?
A: 20.5 µM (inactive)

Q: What about the GI50 (IGROV-1) of the same compound?
A: 16.1 µM (inactive)

Q: And the GI50 (K562)?
A: 2.94 µM (inactive)

Q: And the GI50 (KM12)?
A: 20.9 µM (inactive)

Q: And the GI50 (LOX IMVI)?
A: 2.69 µM (inactive)

Q: What about the GI50 (M14) of the same compound?
A: 19.3 µM (inactive)

Q: And the GI50 (MCF7)?
A: 17.3 µM (inactive)

Q: And the GI50 (MDA-MB-231)?
A: 27.7 µM (inactive)

Q: What about the GI50 (MDA-MB-435) of the same compound?
A: 17.1 µM (inactive)

Q: And the GI50 (MDA-N)?
A: 19.9 µM (inactive)

Q: And the GI50 (MOLT-4)?
A: 15 µM (inactive)

Q: What about the GI50 (Malme-3M) of the same compound?
A: 16.2 µM (inactive)

Q: And the GI50 (NCI-H226)?
A: 19.5 µM (inactive)

Q: And the GI50 (NCI-H23)?
A: 24.5 µM (inactive)

Q: And the GI50 (NCI-H460)?
A: 27.9 µM (inactive)

Q: And the GI50 (NCI-H522)?
A: 19 µM (inactive)

Q: What about the GI50 (NCI/ADR-RES) of the same compound?
A: 42.6 µM (inactive)

Q: What about the GI50 (OVCAR-3) of the same compound?
A: 18.9 µM (inactive)

Q: And the GI50 (OVCAR-4)?
A: 16.1 µM (inactive)

Q: And the GI50 (OVCAR-5)?
A: 22 µM (inactive)

Q: What about the GI50 (OVCAR-8) of the same compound?
A: > 10 µM (inactive)

Q: What about the GI50 (PC-3) of the same compound?
A: 14.9 µM (inactive)

Q: What about the GI50 (RPMI-8226) of the same compound?
A: 12.3 µM (inactive)

Q: And the GI50 (SF-268)?
A: 19.4 µM (inactive)

Q: What about the GI50 (SF-295) of the same compound?
A: 23.7 µM (inactive)

Q: What about the GI50 (SF-539) of the same compound?
A: 18.1 µM (inactive)

Q: And the GI50 (SK-MEL-28)?
A: 15.1 µM (inactive)

Q: What about the GI50 (SK-MEL-2) of the same compound?
A: 23.2 µM (inactive)

Q: What about the GI50 (SK-MEL-5) of the same compound?
A: 16 µM (inactive)

Q: What about the GI50 (SK-OV-3) of the same compound?
A: 16.7 µM (inactive)

Q: What about the GI50 (SN12C) of the same compound?
A: 15.3 µM (inactive)

Q: What about the GI50 (SNB-19) of the same compound?
A: 18.2 µM (inactive)

Q: And the GI50 (SNB-75)?
A: 17.9 µM (inactive)

Q: And the GI50 (SR)?
A: > 10 µM (inactive)

Q: And the GI50 (SW-620)?
A: 14.5 µM (inactive)

Q: And the GI50 (T47D)?
A: 19.2 µM (inactive)

Q: What about the GI50 (TK-10) of the same compound?
A: 21.6 µM (inactive)

Q: And the GI50 (U-251)?
A: 18.4 µM (inactive)

Q: And the GI50 (UACC-257)?
A: 21.4 µM (inactive)

Q: What about the GI50 (UACC-62) of the same compound?
A: 17.9 µM (inactive)

Q: And the GI50 (UO-31)?
A: 16.9 µM (inactive)
